Experimental data from patent publication US9447029B2, “Fluorinated arylalkylaminocarboxamide derivatives” (NEWRON PHARMACEUTICALS S.P.A., priority 2011, dated 2016).
pIC50: −log10 of the molar value. Where a name gives a salt, the structure may show the parent alone.

Columns and labels:
[1] = system: TTXs sodium channels (ND7/23 cells); test: TTXs-sodium channel influx assay (fluorescence, membrane potential kit); type: cell-based, rat; conditions: veratridine 100 μM
Method: ND7/23 rat dorsal root ganglion-derived cell line endogenously expresses a mixed population of TTXs sodium channels (such as Nav1.3, Nav1.2, Nav1.1, Nav1.6). These cells lack of TTXr sodium channels as shown by the absence of their respective transcripts. ND7/23 cells are grown in Dulbecco's Modified Eagle Medium (DMEM, Invitrogen, CA—USA) supplemented with 10% Foetal Bovine Serum (FBS, Invitrogen, CA—USA) and 1 mM sodium piruvate. The cells are seeded at 50,000 cells/well on 96 poly-L-lysine-coated plates and further incubated for 18-24 h before use.
The Membrane Potential Kit Assay (Molecular Devices, CA—USA), based on a negatively charged fluorescent dye able to monitor changes in membrane potential caused by the sodium influx due to the channel opening, is used for the assay.
Cells are incubated with the dye loading for 30 minutes at 25° C. Then, 100 nM of the toxin Anemonia sulcata (used as enhancer of the channel opener response) alone or in the presence of TTX (as reference standard) or test compound are added for further 15 minutes.
The fluorescence (excitation: 530 nm, emission: 565 nm wavelength) is measured before and after (40-45 s) the automated injection of the sodium channel opener veratridine (100 μM) using a Victor plate reader (Perkin Elmer, MA—USA).
The inhibition curves are calculated from 5 concentrations, each in triplicate, and the IC50 determined using a linear regression analysis.
The results, obtained with some compounds which are representative of the entire class of compounds of the invention are reported in Table 1.

CYP2D6 = CYP2D6 (Homo sapiens (Human), UniProt P10635); test: Inhibition of Cytochrome P4502D6 (CYP2D6) using Supersomes; type: in vitro ADME; conditions: AMMC substrate, read-out: IC50 (Fluorinated derivative)
Chain of CYP2D6 (P10635 whole entry): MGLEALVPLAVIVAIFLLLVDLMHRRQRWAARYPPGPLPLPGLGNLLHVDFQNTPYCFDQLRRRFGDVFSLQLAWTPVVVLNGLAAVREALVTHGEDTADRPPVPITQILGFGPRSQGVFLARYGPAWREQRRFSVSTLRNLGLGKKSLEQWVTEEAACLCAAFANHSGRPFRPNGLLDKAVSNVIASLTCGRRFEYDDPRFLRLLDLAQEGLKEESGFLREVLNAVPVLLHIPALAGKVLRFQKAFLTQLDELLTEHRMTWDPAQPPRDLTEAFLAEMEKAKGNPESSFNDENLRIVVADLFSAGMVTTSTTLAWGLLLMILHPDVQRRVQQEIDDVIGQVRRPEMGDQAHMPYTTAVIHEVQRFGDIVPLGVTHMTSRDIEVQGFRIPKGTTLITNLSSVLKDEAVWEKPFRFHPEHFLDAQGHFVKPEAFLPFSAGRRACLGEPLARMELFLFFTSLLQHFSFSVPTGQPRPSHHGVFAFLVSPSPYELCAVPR
Method: The inhibition of Cytochrome P4502D6 (CYP2D6) is assessed by performing in vitro inhibition studies using Supersomes, microsomes derived from baculovirus infected insect cells; the baculoviruses are engineered to express one or more drug metabolizing enzyme cDNAs. Supersomes catalyze the same enzymatic reactions as human liver microsome enzymes, but they contain much higher enzyme activity than other microsome sources (Crespi C. L. and Penman B. W., Advances Pharmacology, 43, 171-188 (1997); Crespi C. L. and Miller V. P., Analytical Biochemistry, 248, 188-190 (1997)).
Kits with Supersomes are Supplied by GENTEST (MA, USA).
Test compound is dissolved in DMSO 500× the highest final concentration desired in the IC50 assay. 30 ml of deionized water is pre-warmed to 37° C. and all kit components are placed on ice. For each well of column 1, 149.4 μL of NADPH-Cofactor Mix, (187.5 μl of Cofactors, 150 μl of G6PDH, 100 μl of Control Protein and 14.56 ml of 37° C. water) are added.
In each well from Column 2 to 12, 100 μl of Cofactor/DMSO mix (40 μL DMSO in 9.96 ml of NADPH-Cofactor Mix) are added. To each well of column 1, 0.6 μl of test compound or positive control are added. 50 μl from each well of column 1 are serially diluted to column 8. The extra 50 μl from column 8 are discarded. The plate is covered and pre-incubated at 37° C. for 10 minutes.
Preparation of enzyme/substrate mix: 7.92 ml of pre-warmed deionized water, 75 μl of enzyme, 3 μl of 10 mM AMMC and 2 ml of pre-warmed buffer are mixed.
After the pre-incubation time (10′), 100 μl of enzyme/substrate mix to each well from column 1 to 10 are added. The plate is incubated at 37° C. for 30 minutes. After this time, 75 μl of Stop Reagent to each well are added. For blank controls, 100 μl of enzyme/substrate mix are added to columns 11 and 12.
Plates are read at the Victor plate reader (Perkin Elmer, MA—USA) at 390 nm excitation and 460 nm emission wavelengths.

CCCCOc1cccc(C(F)(F)CN(CCCOC)CC(=O)N(C)C)c1 [Example 3-2, 2-{[2,2-Difluoro-2-(3-butoxyphenyl)-ethyl]-(3-methoxypropyl)-amino}-N,N-dimethyl-acetamide, hydrochloride]
pIC50 [1]: 5.62 | pIC50 (CYP2D6): < 4.40
